What was measured:
[1] = test system: B6 Lymphocytes; test: Proliferative responses of lymphocytes to Con A and LPS (3H-TdR incorporation); settings: 1 to 10-^2 µg/ml
[2] = test system: B6 Mice; test: Immunosuppression in vivo: lymphocytes from treated mice stimulated in MLC and tested for CTL cytotoxicity; design: species or system mouse; settings: for cytotoxicity of effector cells from treated mice: after 30 days of treatment
[3] = test system: B6 Mice; test: Suppressor cells in treated mice: lymphocytes of treated mice added to a conventional MLC; type: in vivo, mouse; settings: 3 mg/kg; lymphocytes obtained 5 weeks later; 1-5x10^6 cells added to MLC; dose related
[4] = test system: alloreactive cytolytic T lymphocytes (CTL); test: Induction of alloreactive cytolytic T lymphocytes (CTL) in MLC, 51Cr-release microcytotoxicity assay with P815 target cells; type: cell-based, mouse; settings: for minimum doses required to cause a significant effect (CTL generation in MLC): compared to control CTL generated in drug-free MLC
[5] = test system: B6 Lymphocytes; test: Proliferative response of mouse lymphocytes to alloantigens in mixed lymphocyte cultures (MLC); type: cell-based; settings: 10-^2 and 10^-4 µg/ml; one-way, 5-day MLC

| SMILES | proliferation of these cells (Con A or LPS stimulated) [1] | CTL generation of lymphocytes from treated mice ([2]; 0.3 mg/kg, day 23 post treatment) | CTL generation by lymphocytes from drug-treated mice ([2]; 3 mg/kg i.p., lymphocytes prepared 2 weeks later, 5-day MLC, all E:T ratios tested) | cytotoxicity of effector cells from treated mice ([2]; 0.3 and 0.75 mg/kg) | CTL activity of lymphocytes from treated mice ([2]; 0.3 to 3.0 mg/kg, day 10 after treatment) | cytotoxicity of effector cells from treated mice ([2]; 1.5 an 3.0 mg/kg) | effect of cells from drug treated mice on CTL generation by normal lymphocytes [3] | generation of CTL ([4]; 1 to 10-^4 µg/ml in MLC) | % lysis (CTL activity) ([4]; 10-^3 µg/ml added 2 days after setting up MLC, p < 0.001 vs control (% lysis = 52.0)) [%] | % lysis (CTL activity) ([4]; 10-^3 µg/ml added at the same time as initiation of MLC, control % lysis = 52.0) [%] | % lysis (CTL activity) ([4]; 10-^3 µg/ml added one day after initiation of MLC, control % lysis = 52.0) [%] | generation of CTL ([4]; 10-^4 mcg/ml) | % lysis (CTL activity) ([4]; 10-^5 mcg/mi added to MLC, p < 0.01 vs control CTL (% lysis = 45.7), 5 days) [%] | duration of the suppressive effect (suppression after removal of compound) ([4]; 10^-3 µg/ml, compound removed from 1 MLC each day by washing, CTL tested after five days) | proliferation of B6 lymphocytes stimulated by D2 lymphocytes [5] | minimum doses required to cause a significant effect (CTL generation in MLC) [4] |
| --- | --- | --- | --- | --- | --- | --- | --- | --- | --- | --- | --- | --- | --- | --- | --- | --- |
| Cl.Cl.NCCNc1ccc(NCCN)c2c1C(=O)c1c(O)ccc(O)c1C2=O | completely abolished | typical CTL generation was evident | failed to become effective CTL | normal level of cytotoxicity | no CTL activity | still unable to do so | significantly prevented normal lymphocytes from becoming effective CTL | complete failure to generate CTL | 22.0 | 2.7 | 6.4 | consistent failure to generate CTL | 37.0 | irreversible | significantly prevented | – |
| COc1cccc2c1C(=O)c1c(O)c3c(c(O)c1C2=O)C[C@@](O)(C(=O)CO)C[C@@H]3O[C@H]1C[C@H](N)[C@H](O)[C@H](C)O1 [Adriamycin, reference compound] | – | – | – | – | – | – | – | – | – | – | – | – | – | – | – | 10^-1 µg/ml |
| Cl.Cl.O=C1c2c(O)ccc(O)c2C(=O)c2c(NCCNCCO)ccc(NCCNCCO)c21 [Novantrone^TM, reference compound] | – | – | – | – | – | – | – | – | – | – | – | – | – | – | – | 10^-3 µg/ml |

Source: patent EP0154117B1 (dated 1985)
